Laboratory results from PubChem BioAssay (NCI).
Several values for one entry are separate records, joined by “and”; a condition that tells them apart may be missing. Identical values can stand only once.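 Values below derive from 48-hour exposures of cells grown in 96-well plates, with endpoints linearly interpolated between the two concentrations bracketing the appropriate inhibition level. At the GI50, growth is halved. TGI marks complete inhibition of growth.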 Where a SMILES comes first, the peptide text is derived from it. [ ]: non-standard residue; d: D form. The star is where a group is joined. ξ: configuration not given here. X3 = COc1ccc(C(N*)c2ccc(OC)cc2)cc1; NMeF = CN[C@@H](Cc1ccccc1)C(=O)O; NMeD = CN[C@@H](CC(=O)O)C(=O)O; NMeV = CN[C@H](C(=O)O)C(C)C; ξNMeV = CNC(C(=O)O)C(C)C; Boc = CC(C)(C)OC(=O)*; ξNMeA = CNC(C)C(=O)O; ξV = CC(C)C(N)C(=O)O

What was measured:
Test in all cases: DTP human tumour cell line panel, 48 h
MOLT-4 leukemia = test system: MOLT-4 leukemia
NCI-H460 lung = test system: NCI-H460 lung
TK-10 renal = test system: TK-10 renal
HT29 colon = test system: HT29 colon
RXF 393 renal = test system: RXF 393 renal
A498 renal = test system: A498 renal
SR leukemia = test system: SR leukemia
KM12 colon = test system: KM12 colon
DU-145 prostate = test system: DU-145 prostate
SK-MEL-28 melanoma = test system: SK-MEL-28 melanoma

| SMILES | GI50 (MOLT-4 leukemia) | TGI (MOLT-4 leukemia) | GI50 (NCI-H460 lung) | TGI (NCI-H460 lung) | GI50 (TK-10 renal) | TGI (TK-10 renal) | GI50 (HT29 colon) | TGI (HT29 colon) | GI50 (RXF 393 renal) | TGI (RXF 393 renal) | GI50 (A498 renal) | TGI (A498 renal) | GI50 (SR leukemia) | TGI (SR leukemia) | GI50 (KM12 colon) | TGI (KM12 colon) | GI50 (DU-145 prostate) | TGI (DU-145 prostate) [µM] | GI50 (SK-MEL-28 melanoma) | TGI (SK-MEL-28 melanoma) |
| --- | --- | --- | --- | --- | --- | --- | --- | --- | --- | --- | --- | --- | --- | --- | --- | --- | --- | --- | --- | --- |
| O=C1NC(=NC(CO)Cc2ccccc2)S/C1=C\c1ccc2ncccc2c1 (stereo not drawn) | 12.2 µM and 7.45 µM | > 25 µM and 18.7 µM | 14.6 µM and 3.02 µM | > 25 µM | > 23.7 µM and 3.55 µM | > 25 µM | 16.2 µM and 4.74 µM | > 25 µM | 11.5 µM and 3.82 µM | > 25 µM and 10.7 µM | > 15.2 µM and 1.96 µM | > 25 µM and 7.67 µM | 6.94 µM and 0.888 µM | > 22.6 µM and 5.23 µM | 12.4 µM and 2.25 µM | > 25 µM | 18.8 µM and 2.62 µM | > 25 | > 23.7 µM and 7.24 µM | > 25 µM and 24.4 µM |
| CN1CC[C@@H](NC(=O)Nc2ccc(C#N)cc2)C[C@@H]1c1nc2ccccc2[nH]1 | 55.6 µM | > 100 µM | > 100 µM | > 100 µM | > 100 µM | > 100 µM | > 74.2 µM | > 100 µM | 40.5 µM | > 100 µM | > 27.4 µM | > 65.7 µM | 48.2 µM | > 100 µM | > 100 µM | > 100 µM | > 100 µM | > 100 | > 100 µM | > 100 µM |
| CN(C)c1cc(NN=C(c2ccc(O)cc2)c2ccc(O)cc2)c([N+](=O)[O-])cc1[N+](=O)[O-] | 3.37 µM | 23.2 µM | 4.36 µM | 15.9 µM | 7.35 µM | 22 µM | 10 µM | 23.7 µM | 11.3 µM | 26.9 µM | 8.18 µM | 21.6 µM | 3.15 µM | 22.8 µM | 3.73 µM | 13.8 µM | 10.2 µM | 23.6 | 2.85 µM | 10.5 µM |
| COc1ccc(C(NC(=O)C[C@@H](C(=O)N(C)C(C)C(=O)O)N(C)C(=O)[C@@H]2CCCN2C(=O)[C@H](C(C)C)N(C)C(=O)C(C(C)C)N(C)C(=O)[C@H](Cc2ccccc2)N(C)C(=O)C(NC(=O)OC(C)(C)C)C(C)C)c2ccc(OC)cc2)cc1 (stereo partly drawn) (Boc-[ξV][NMeF][ξNMeV][NMeV]P[NMeD](X3)[ξNMeA]-OH) | 17 µM | 19.3 µM and 43.7 µM | 17.8 µM | 37.5 µM and 33.3 µM | 20.6 µM | 37.5 µM and 35.1 µM |  | 37.2 µM and 32.4 µM |  | 18.5 µM | 20.1 µM | > 37.5 µM and 35.7 µM | 0.00375 µM | 37.5 µM and 36 µM | 17.5 µM | 15.2 µM and 34.1 µM |  | 37.5 | 17.1 µM | 13.6 µM and 30.9 µM |
| O=C1CN(c2cccc(Cl)c2)C(=O)CN1CCN1CC(=O)N(c2cccc(Cl)c2)CC1=O |  | > 100 µM |  | > 100 µM |  | > 100 µM |  | > 100 µM |  | > 100 µM |  | > 100 µM |  | > 100 µM |  | > 100 µM |  | > 100 |  | > 100 µM |
| Cc1cc(I)cc(CN(CCCN(C)C)C(C)C)c1O | 16.3 µM | 34.7 µM | 15.9 µM | 29.8 µM | 18.2 µM | 33.1 µM | 9.23 µM | 21.2 µM | 16 µM | 46.8 µM | 21 µM | 37.8 µM | 15.9 µM | 35.8 µM | 18 µM | 36 µM | 16.1 µM | 29.6 | 16.5 µM | 34.3 µM |
| CCN(Cc1ccc(F)cc1)c1cc(Cl)c(CO)c(Cl)c1 | 16.6 µM | 44 µM | 11.8 µM | 25.9 µM | 2.58 µM | 13.8 µM | 16.2 µM | 33.2 µM | 8.71 µM | 21.6 µM | 1.37 µM | 6.39 µM | 15.4 µM | 39.6 µM |  |  | 16.8 µM | 31.6 | 17.3 µM | 31.5 µM |
| O=C(O)c1nc2nc(Cl)c(Cl)nc2[nH]1 |  | > 100 µM |  | > 100 µM |  | > 100 µM |  | > 100 µM |  | > 100 µM |  | > 100 µM |  | > 100 µM |  | > 100 µM |  | > 100 |  | > 100 µM |
| COc1cccc(C2SC(N)=Nc3c2c(C)nn3C(=O)c2ccccc2O)c1 (stereo not drawn) |  | > 10 µM |  | > 10 µM |  | > 10 µM |  | > 10 µM |  | > 10 µM |  | > 10 µM |  | > 7.36 µM |  | > 10 µM |  | > 10 |  | > 10 µM |
| CCN(C(=O)N1CCN(c2cc3c(cc2F)c(=O)c(C(=O)O)cn3C2CC2)CC1)c1nc(-c2ccc(Cl)cc2)cs1 | 0.542 µM | 3.67 µM | 0.96 µM | > 100 µM | 2.89 µM | > 51.9 µM | 1.06 µM | > 100 µM | 0.978 µM | 7.51 µM | 0.0298 µM | 1.6 µM | 0.272 µM | 0.897 µM | 1.29 µM | > 100 µM | 1.83 µM | > 100 | 1.91 µM | > 100 µM |
| COc1cccc(C(=O)NC(c2ccc(C)cc2)c2cc(Cl)c3cccnc3c2O)c1 (stereo not drawn) | 0.622 µM | 8.05 µM | 0.359 µM | 4.66 µM | 0.393 µM | 4.8 µM | 0.623 µM | 19.8 µM | 0.736 µM | 3.44 µM | 1.28 µM | 11.6 µM | 0.538 µM | 5.66 µM | 0.545 µM | 16.8 µM | 1.14 µM | 14.3 | 0.743 µM | 17.1 µM |
| COC[C@H]1Cn2cc(-c3nc(Nc4ccnn4C)ncc3C)nc2C(=O)N1Cc1ccc(F)c(F)c1 | 23.9 µM | > 100 µM | 12.3 µM | > 100 µM | 5.5 µM | > 100 µM | 0.0436 µM | > 100 µM | 1.66 µM | > 100 µM | 0.0405 µM | 0.291 µM | > 100 µM | > 100 µM | 0.586 µM | > 100 µM | 22.7 µM | > 100 |  |  |
| CC(=O)CC(OC(C)=O)C1=CCC2C(CC1C)OC(=O)C2C (stereo not drawn) |  | > 100 µM |  | > 100 µM |  | > 100 µM |  | > 100 µM |  | > 100 µM |  | > 100 µM |  | > 100 µM |  | > 100 µM |  | > 100 |  | > 100 µM |
| O=C(CCCSc1nc(-c2ccccc2)cc(-c2ccccc2)n1)NO | 1.1 µM | 10.2 µM | 0.488 µM | 11.2 µM | 0.669 µM | 19.1 µM | 2.46 µM | 12.2 µM | 0.525 µM | 3.05 µM | 1.12 µM | 3.1 µM | 0.38 µM | 20.5 µM | 2.64 µM | 12.9 µM | 1.83 µM | 11.4 | 1.95 µM | 7.2 µM |
